ChEMBL document CHEMBL5620371, “Transient receptor potential ankyrin 1 (TRPA1) modulators: Recent update and future perspective” (Eur J Med Chem, 2023)
Values belong to the molecule of their own block, whether it stands above or below them.

Legend:
[1] = biological target: T1, Transient receptor potential cation channel subfamily A member 1 (Rattus norvegicus, UniProt Q6RI86); assay: Agonist activity at rat recombinant TRPA1 expressed in HEK293 cells assessed as increase in intracellular calcium accumulation by Fluo4-AM based assay; format: cell-based
T1 sequence (Q6RI86 whole entry): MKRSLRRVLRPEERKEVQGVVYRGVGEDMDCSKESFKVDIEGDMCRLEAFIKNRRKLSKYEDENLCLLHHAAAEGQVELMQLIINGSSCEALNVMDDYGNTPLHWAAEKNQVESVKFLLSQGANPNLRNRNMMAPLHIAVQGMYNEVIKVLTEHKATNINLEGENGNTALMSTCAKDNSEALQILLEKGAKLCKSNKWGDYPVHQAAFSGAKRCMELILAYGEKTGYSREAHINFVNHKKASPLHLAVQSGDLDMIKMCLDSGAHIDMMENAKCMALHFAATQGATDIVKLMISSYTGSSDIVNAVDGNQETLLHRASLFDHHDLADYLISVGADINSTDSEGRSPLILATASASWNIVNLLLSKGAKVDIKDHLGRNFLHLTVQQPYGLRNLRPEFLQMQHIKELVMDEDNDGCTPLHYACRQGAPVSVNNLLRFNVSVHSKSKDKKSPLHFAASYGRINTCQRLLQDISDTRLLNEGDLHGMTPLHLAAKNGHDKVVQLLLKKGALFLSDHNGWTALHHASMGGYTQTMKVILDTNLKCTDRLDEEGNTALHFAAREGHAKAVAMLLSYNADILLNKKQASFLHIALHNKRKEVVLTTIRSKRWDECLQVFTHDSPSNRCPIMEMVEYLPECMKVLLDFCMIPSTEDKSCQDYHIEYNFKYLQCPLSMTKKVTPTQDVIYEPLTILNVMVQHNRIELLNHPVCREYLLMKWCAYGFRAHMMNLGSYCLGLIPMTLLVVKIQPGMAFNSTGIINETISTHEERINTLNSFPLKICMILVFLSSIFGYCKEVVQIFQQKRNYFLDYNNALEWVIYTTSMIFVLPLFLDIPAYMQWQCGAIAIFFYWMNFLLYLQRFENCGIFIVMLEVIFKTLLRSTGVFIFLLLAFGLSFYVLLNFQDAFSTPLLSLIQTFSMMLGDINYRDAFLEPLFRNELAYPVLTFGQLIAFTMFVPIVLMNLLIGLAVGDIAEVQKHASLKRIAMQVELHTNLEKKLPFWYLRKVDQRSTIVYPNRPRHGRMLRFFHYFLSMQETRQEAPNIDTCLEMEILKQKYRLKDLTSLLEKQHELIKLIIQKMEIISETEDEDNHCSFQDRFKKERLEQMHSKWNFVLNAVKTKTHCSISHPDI

[2] = biological target: T2, Transient receptor potential cation channel subfamily A member 1 (Homo sapiens, UniProt O75762); assay: Antagonist activity at human recombinant TRPA1 transfected in HEK293T cells assessed as increase in Ca2+ influx by FLIPR calcium assay; format: cell-based
T2 sequence (O75762 whole entry): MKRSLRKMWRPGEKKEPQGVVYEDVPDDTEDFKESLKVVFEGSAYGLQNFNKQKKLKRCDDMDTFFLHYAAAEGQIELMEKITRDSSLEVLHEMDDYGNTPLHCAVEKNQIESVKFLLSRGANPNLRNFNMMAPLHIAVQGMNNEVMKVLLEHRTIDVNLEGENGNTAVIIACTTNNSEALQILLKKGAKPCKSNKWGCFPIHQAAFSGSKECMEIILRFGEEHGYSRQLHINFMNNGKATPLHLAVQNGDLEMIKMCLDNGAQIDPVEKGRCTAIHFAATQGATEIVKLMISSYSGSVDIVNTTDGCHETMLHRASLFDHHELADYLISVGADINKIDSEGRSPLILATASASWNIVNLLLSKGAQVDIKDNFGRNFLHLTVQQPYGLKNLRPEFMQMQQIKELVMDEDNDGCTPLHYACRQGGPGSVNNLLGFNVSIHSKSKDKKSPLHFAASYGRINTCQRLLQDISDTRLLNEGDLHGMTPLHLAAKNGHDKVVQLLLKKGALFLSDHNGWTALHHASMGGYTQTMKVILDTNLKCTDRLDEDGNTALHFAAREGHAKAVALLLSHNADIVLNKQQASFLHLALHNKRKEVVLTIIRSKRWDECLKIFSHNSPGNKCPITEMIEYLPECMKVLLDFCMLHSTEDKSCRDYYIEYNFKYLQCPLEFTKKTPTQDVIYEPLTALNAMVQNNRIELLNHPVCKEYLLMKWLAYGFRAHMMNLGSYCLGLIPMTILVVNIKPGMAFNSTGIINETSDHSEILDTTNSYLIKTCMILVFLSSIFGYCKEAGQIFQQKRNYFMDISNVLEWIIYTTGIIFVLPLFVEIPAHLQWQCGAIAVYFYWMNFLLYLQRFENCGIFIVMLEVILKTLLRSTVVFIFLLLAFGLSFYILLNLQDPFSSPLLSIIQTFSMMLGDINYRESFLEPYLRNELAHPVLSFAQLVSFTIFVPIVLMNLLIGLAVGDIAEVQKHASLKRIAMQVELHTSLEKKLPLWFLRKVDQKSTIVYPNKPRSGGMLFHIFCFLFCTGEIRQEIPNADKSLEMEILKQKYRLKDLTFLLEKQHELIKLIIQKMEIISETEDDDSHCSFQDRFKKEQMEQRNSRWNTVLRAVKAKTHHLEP

[3] = biological target: T3, Transient receptor potential cation channel subfamily V member 1 (Homo sapiens, UniProt Q8NER1); assay: Inhibition of TRPV1 (unknown origin)
T3 sequence (Q8NER1 whole entry): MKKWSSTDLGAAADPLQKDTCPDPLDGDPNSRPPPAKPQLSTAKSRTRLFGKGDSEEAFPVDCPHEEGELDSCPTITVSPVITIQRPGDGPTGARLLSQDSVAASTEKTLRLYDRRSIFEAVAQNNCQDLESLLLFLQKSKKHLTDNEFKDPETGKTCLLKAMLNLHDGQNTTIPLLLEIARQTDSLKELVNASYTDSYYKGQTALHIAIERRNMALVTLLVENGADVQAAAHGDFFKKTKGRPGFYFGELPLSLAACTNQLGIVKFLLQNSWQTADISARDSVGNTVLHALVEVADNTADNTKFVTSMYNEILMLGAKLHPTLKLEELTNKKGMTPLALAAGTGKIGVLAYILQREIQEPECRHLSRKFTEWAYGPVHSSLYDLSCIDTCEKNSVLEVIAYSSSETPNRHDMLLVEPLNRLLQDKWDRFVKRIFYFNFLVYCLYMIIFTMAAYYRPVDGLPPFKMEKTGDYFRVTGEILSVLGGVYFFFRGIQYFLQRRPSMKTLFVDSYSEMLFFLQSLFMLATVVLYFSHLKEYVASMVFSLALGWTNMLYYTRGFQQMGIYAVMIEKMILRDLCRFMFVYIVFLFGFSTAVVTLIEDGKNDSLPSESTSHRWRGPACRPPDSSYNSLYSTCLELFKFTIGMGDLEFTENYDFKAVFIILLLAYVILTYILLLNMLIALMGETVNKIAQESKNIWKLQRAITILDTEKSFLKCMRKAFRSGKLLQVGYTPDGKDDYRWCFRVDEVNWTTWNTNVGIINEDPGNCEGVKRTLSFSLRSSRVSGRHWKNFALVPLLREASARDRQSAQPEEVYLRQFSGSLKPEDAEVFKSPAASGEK

[4] = biological target: T2, Transient receptor potential cation channel subfamily A member 1; assay: Antagonist activity at TRPA1 (unknown origin) expressed in HEK293T cells assessed as inhibition of agonist induced channel current by whole-cell patch clamp analysis; format: cell-based
[5] = biological target: T2, Transient receptor potential cation channel subfamily A member 1; assay: Agonist activity at TRPA1 (unknown origin)
[6] = biological target: T4, Transient receptor potential cation channel subfamily A member 1 (Mus musculus, UniProt Q8BLA8); assay: Agonist activity at full length mouse TRPA1 transfected in HEK293F cells assessed as increase in Ca2+ influx by FLIPR calcium assay; format: cell-based
T4 sequence (Q8BLA8 whole entry): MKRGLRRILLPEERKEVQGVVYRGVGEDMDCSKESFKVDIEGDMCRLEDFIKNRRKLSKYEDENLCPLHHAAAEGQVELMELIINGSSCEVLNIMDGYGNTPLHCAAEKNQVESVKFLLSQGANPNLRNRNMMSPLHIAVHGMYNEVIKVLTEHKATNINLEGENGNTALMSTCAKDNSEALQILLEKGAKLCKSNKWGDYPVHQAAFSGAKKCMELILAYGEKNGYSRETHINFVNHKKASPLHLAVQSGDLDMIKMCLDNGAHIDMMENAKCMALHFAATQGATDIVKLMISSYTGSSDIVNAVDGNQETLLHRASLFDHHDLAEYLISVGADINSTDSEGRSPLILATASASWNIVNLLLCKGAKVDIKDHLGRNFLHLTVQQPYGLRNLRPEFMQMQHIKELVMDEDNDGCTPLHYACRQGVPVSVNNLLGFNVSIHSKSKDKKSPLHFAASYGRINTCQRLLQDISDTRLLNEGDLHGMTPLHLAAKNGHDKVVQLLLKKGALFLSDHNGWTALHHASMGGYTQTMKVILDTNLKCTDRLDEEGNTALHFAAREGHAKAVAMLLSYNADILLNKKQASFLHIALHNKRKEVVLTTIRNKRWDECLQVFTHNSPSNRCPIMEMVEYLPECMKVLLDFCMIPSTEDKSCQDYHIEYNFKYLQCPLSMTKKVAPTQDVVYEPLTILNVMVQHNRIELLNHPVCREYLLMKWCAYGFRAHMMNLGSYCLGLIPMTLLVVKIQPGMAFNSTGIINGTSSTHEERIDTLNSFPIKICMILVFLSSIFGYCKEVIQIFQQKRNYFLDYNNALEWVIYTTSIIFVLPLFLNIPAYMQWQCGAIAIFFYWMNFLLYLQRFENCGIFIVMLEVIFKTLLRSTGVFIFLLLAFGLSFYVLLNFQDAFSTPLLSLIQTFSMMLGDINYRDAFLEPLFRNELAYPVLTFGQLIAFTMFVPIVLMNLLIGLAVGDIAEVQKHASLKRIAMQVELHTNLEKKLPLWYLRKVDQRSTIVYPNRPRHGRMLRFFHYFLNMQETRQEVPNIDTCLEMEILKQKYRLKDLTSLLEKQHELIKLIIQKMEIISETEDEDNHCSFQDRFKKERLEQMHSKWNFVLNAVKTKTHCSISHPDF

[7] = biological target: T2, Transient receptor potential cation channel subfamily A member 1; assay: Inhibition of TRPA1 (unknown origin)
[8] = biological target: T1, Transient receptor potential cation channel subfamily A member 1; assay: Agonist activity at rat TRPA1 transfected in HEK293F cells assessed as increase in Ca2+ influx by FLIPR calcium assay; format: cell-based
[9] = biological target: T3, Transient receptor potential cation channel subfamily V member 1; assay: Agonist activity at human recombinant TRPV1 over expressed in HEK293 cells assessed as increase in intracellular calcium level by measuring efficacy by Fluo4-AM based assay; format: cell-based
[10] = biological target: T4, Transient receptor potential cation channel subfamily A member 1; assay: Antagonist activity at mouse TRPA1 expressed in HEK293F cells as increase in Ca2+ influx by FLIPR calcium assay; format: cell-based

SMILES: CC(C)CN1C(=O)/C(=C/C(=O)O)c2cccc(F)c21
- IC50 [1]: 0.51 µM

SMILES: O=NN1[C@@H]2c3ccccc3[C@H]1[C@@H](C(F)(F)F)C2C(F)(F)F (stereo partly specified)
- EC50 [2]: 5.63 µM

SMILES: C[n+]1cc2c3c(ccc2c2ccc4cc5c(cc4c21)OCO5)OCO3
- EC50 [4]: 0.09 µM

SMILES: O=C(O)CCCCCCCCCO
- EC50 [6]: 510 µM

SMILES: O=C(CCc1ccccc1)CC(O)Cc1ccccc1 (stereo unspecified)
- IC50 [7]: 4.5 µM
- IC50 [3]: > 50 µM

SMILES: Cn1cnc2ncn(Cc3nc([C@@H]4CO[C@@H](c5ccc(F)cc5)C4)no3)c(=O)c21
- IC50 [8]: 0.007 µM

SMILES: O=C(O)/C=C/CCCCCCCO
- EC50 [6]: 422 µM

SMILES: CCC/C=C1\OC(=O)C2=C1CCC=C2 [LIGUSTILIDE]
- EC50 [10]: 44 µM

SMILES: O=C1C[C@@H](c2ccc(O[C@@H]3O[C@H](CO)[C@@H](O)[C@H](O)[C@H]3O)cc2)Oc2cc(O)ccc21 [LIQUIRITIN]
- IC50 [7]: 16.2 µM

SMILES: CCC/C=C1\OC(=O)c2ccccc21 [Z-butylidenephthalide]
- EC50 [6]: 539 µM

Results, then the molecule that gave them:

- IC50 [3]: > 50 µM
SMILES: CC(C)c1cc(CCC(=O)CC(O)Cc2ccccc2)cc(C(C)C)c1O (stereo unspecified)

- IC50 [3]: > 10 µM
SMILES: O=C(CCc1ccc2c(c1)OCO2)CC(O)CCCCCCc1ccccc1 (stereo unspecified)

- IC50 [3]: > 10 µM
SMILES: O=C(CCc1ccccc1)CC(O)CCCCCCc1ccccc1 (stereo unspecified)

- EC50 [5]: 0.00065 µM
SMILES: COCCCN(C(=O)CCl)c1nc(-c2ccc(OC)cc2)cs1

- EC50 [9]: 3.7 µM
SMILES: C[C@@H](N)[C@@H](O)C/C=C\C/C=C\C/C=C\C/C=C\C/C=C\C/C=C\CCCCCC[C@H](O)[C@@H](C)N [LEUCETTAMOL A]
